Data: the supplement of paper PMC10307832

Columns and labels:
Assay in all cases: relative viability (nuclei count vs DMSO), 5 days (fraction); higher = more cells survive
[1] = test system: RERF-LC-KJ
How it was run: (§1)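 Dosing by pin tool came one day after lung cancer cell lines were seeded in 1536-well plates, using either one drug or a fixed anchor-drug dose plus five library-drug doses (not always all listed) in √10 steps. After 5 days, nuclei were counted on 4× images. Relative viability is treated-well nuclei count divided by vehicle-well nuclei count, and values are medians of duplicate plates.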

[2] = test system: EMC-BAC-2
How it was run: as §1

[3] = test system: NCI-H2347
How it was run: as §1

[4] = test system: HOP-62
How it was run: as §1

[5] = test system: NCI-H3122
How it was run: as §1

[6] = test system: NCI-H838
How it was run: as §1

[7] = test system: SW 900
How it was run: as §1

[8] = test system: ABC-1
How it was run: as §1

[9] = test system: LK-2
How it was run: as §1

[10] = test system: EKVX
How it was run: as §1

[11] = test system: 201T
How it was run: as §1

[12] = test system: LC-2-ad
How it was run: as §1

[13] = test system: ChaGo-K-1
How it was run: as §1

[14] = test system: HCC-78
How it was run: as §1

[15] = test system: NCI-H1355
How it was run: as §1

[16] = test system: PC-14
How it was run: as §1

[17] = test system: HCC-44
How it was run: as §1

Molecule `COCC1(CO)C(=O)C2CCN1CC2` (stereo not drawn) [PRIMA-1MET] + NC(=O)Nc1cc(-c2cccc(F)c2)sc1C(=O)N[C@H]1CCCNC1 [AZD7762] (partner 0.2 µM) has a relative viability ([1]; first compound 0.2 µM) of 1.11, a relative viability ([1]; first compound 0.6325 µM) of 0.875 and a relative viability ([1]; first compound 2 µM) of 0.928. The relative viability ([1]; first compound 6.325 µM) was 1.04, the relative viability ([1]; first compound 20 µM) was 0.978 and the relative viability ([2]; first compound 0.2 µM) was 1.34. The relative viability ([2]; first compound 0.6325 µM) was 1.07, the relative viability ([2]; first compound 2 µM) was 0.989 and the relative viability ([2]; first compound 6.325 µM) was 1.12. The relative viability ([2]; first compound 20 µM) was 1.01, the relative viability ([3]; first compound 0.2 µM) was 0.709 and the relative viability ([3]; first compound 0.6325 µM) was 0.668. The relative viability ([3]; first compound 2 µM) was 0.569, the relative viability ([3]; first compound 6.325 µM) was 0.761 and the relative viability ([3]; first compound 20 µM) was 0.525. It also gave a relative viability ([4]; first compound 0.2 µM) of 0.653, a relative viability ([4]; first compound 0.6325 µM) of 0.387 and a relative viability ([4]; first compound 2 µM) of 0.482. It also gave a relative viability ([4]; first compound 6.325 µM) of 0.655, a relative viability ([4]; first compound 20 µM) of 0.273 and a relative viability ([5]; first compound 0.2 µM) of 0.854. For the same molecule, the relative viability ([5]; first compound 0.6325 µM) was 0.911, the relative viability ([5]; first compound 2 µM) was 0.985 and the relative viability ([5]; first compound 6.325 µM) was 0.95. For the same molecule, the relative viability ([5]; first compound 20 µM) was 0.879, the relative viability ([6]; first compound 0.2 µM) was 0.989 and the relative viability ([6]; first compound 0.6325 µM) was 0.88. It also gave a relative viability ([6]; first compound 2 µM) of 0.9, a relative viability ([6]; first compound 6.325 µM) of 1.05 and a relative viability ([6]; first compound 20 µM) of 0.849. The relative viability ([7]; first compound 0.2 µM) was 0.553, the relative viability ([7]; first compound 0.6325 µM) was 0.632 and the relative viability ([7]; first compound 6.325 µM) was 0.573. It also gave a relative viability ([7]; first compound 20 µM) of 0.101, a relative viability ([8]; first compound 0.2 µM) of 0.97 and a relative viability ([8]; first compound 0.6325 µM) of 0.624. The relative viability ([8]; first compound 2 µM) was 0.952, the relative viability ([8]; first compound 6.325 µM) was 0.775 and the relative viability ([8]; first compound 20 µM) was 0.376. For the same molecule, the relative viability ([9]; first compound 0.2 µM) was 0.469, the relative viability ([9]; first compound 0.6325 µM) was 0.405 and the relative viability ([9]; first compound 2 µM) was 0.182. The relative viability ([9]; first compound 6.325 µM) was 0.124, the relative viability ([9]; first compound 20 µM) was 0.0604 and the relative viability ([10]; first compound 0.2 µM) was 0.72. For the same molecule, the relative viability ([10]; first compound 2 µM) was 0.524, the relative viability ([10]; first compound 6.325 µM) was 0.748 and the relative viability ([10]; first compound 20 µM) was 0.378. The relative viability ([11]; first compound 0.2 µM) was 0.484, the relative viability ([11]; first compound 0.6325 µM) was 0.578 and the relative viability ([11]; first compound 2 µM) was 0.626. It also gave a relative viability ([11]; first compound 6.325 µM) of 0.577, a relative viability ([11]; first compound 20 µM) of 0.563 and a relative viability ([12]; first compound 0.2 µM) of 0.968. It also gave a relative viability ([12]; first compound 0.6325 µM) of 0.806, a relative viability ([12]; first compound 2 µM) of 0.669 and a relative viability ([12]; first compound 6.325 µM) of 0.932. The relative viability ([12]; first compound 20 µM) was 0.791, the relative viability ([13]; first compound 0.2 µM) was 0.765 and the relative viability ([13]; first compound 0.6325 µM) was 0.794. It also gave a relative viability ([13]; first compound 2 µM) of 0.819, a relative viability ([13]; first compound 6.325 µM) of 0.85 and a relative viability ([13]; first compound 20 µM) of 0.779. The relative viability ([14]; first compound 0.2 µM) was 0.893, the relative viability ([14]; first compound 0.6325 µM) was 0.62 and the relative viability ([14]; first compound 2 µM) was 0.555. For the same molecule, the relative viability ([14]; first compound 6.325 µM) was 0.69, the relative viability ([14]; first compound 20 µM) was 0.174 and the relative viability ([15]; first compound 0.2 µM) was 0.887. For the same molecule, the relative viability ([15]; first compound 0.6325 µM) was 0.61, the relative viability ([15]; first compound 2 µM) was 0.702 and the relative viability ([15]; first compound 6.325 µM) was 0.874. The relative viability ([15]; first compound 20 µM) was 0.72, the relative viability ([16]; first compound 0.2 µM) was 0.407 and the relative viability ([16]; first compound 0.6325 µM) was 0.386. The relative viability ([16]; first compound 2 µM) was 0.319, the relative viability ([16]; first compound 6.325 µM) was 0.387 and the relative viability ([16]; first compound 20 µM) was 0.178. For the same molecule, the relative viability ([17]; first compound 0.2 µM) was 1.02, the relative viability ([17]; first compound 0.6325 µM) was 1.01 and the relative viability ([17]; first compound 2 µM) was 1.18. It also gave a relative viability ([17]; first compound 6.325 µM) of 1.03 and a relative viability ([17]; first compound 20 µM) of 1.01.
